Test results: patent US20090264384A1, “INDOLE, BENZIMIDAZOLE, AND BENZOLACTAM BORONIC ACID COMPOUNDS, ANALOGS THEREOF AND METHODS OF USE THEREOF” (Nuada, Inc., priority 2004, published 2009)
Values joined by “and” are separate entries in the source; they are usually repeats but may differ in a detail not shown here. Identical values can stand only once.

Experiments:
[1] = test system: colitis provoked by trinitrobenzene sulphonic acid (TNBS); assay: Rat model of colitis provoked by TNBS, 3 days, treatment from Day −1 (CCI-7155, CCI-7156); type: in vivo; details: vs CMC group; for reduction in area of macroscopic colonic injury / reduction in colonic MPO levels / reduction in colon weight / reduction in colonic water content (wet/dry weight): 72 h after TNBS
Description: The effects of CCI-7155 and CCI-7156, were evaluated in the TNBS model at one and two oral dose levels, administered twice a day by gavage, treatment commencing 1 day prior to challenge. A low intracolonic concentration of TNBS (10 mg) was used, known to produce reproducible yet not unduly severe mucosal injury in the colon, determined 3 days after instillation. Colonic macroscopic injury has been assessed, as has colonic weight as a reflection of colonic oedema and wet/dry weight to determine colonic water content, along with determination of myeloperoxidase (MPO) activity (Bradley et al, 1982) as an index of white cell infiltration for the evaluation of tissue injury. In addition to the test compounds [CCI-7155 and CCI-7156], the actions of sulfasalazine, a well-established and currently used treatment has also been evaluated in this model.
TNBS Challenge—Male Wistar rats (230-280 g) were randomised into groups of 8-10 before commencement of the study. Food was withdrawn 18 h (overnight) before TNBS administration, but the rats were allowed free access to drinking water. On the morning of the day of challenge, Day 0, the rats were transiently anaesthetised with ether and TNBS (10 mg in 0.25 ml of 50% ethanol) was instilled approximately 6-8 cm into the colon using a soft plastic catheter inserted in the rat rectum. The rats were allowed to recover with free access to food and drinking water. At the end of the experiment, 72 h after TNBS administration (i.e. on the morning of Day 3, between 9.00 and 11.00), the distal colon was dissected, and the distal 8 cm photographed and stored appropriately for subsequent analyses.
The following primary parameters were measured in the main study: (a) macroscopic scoring of distal 8 cm of colon; (b) myeloperoxidase levels in segments of distal 8 cm of colon. In addition, the weight of the colonic segment was assessed as an indirect and non-specific marker of oedema, and this was supported by measurement of the wet/dry ratio as an index of water content. The body weight of the animals was also determined and expressed as % change from the day of challenge.
Treatments. All challenged groups were dosed orally twice daily from Day −1. The groups for study were:
The compounds were thus administered orally, twice daily and given on Day −b 1 before TNBS administration, on Day 0, the day of TNBS administration and on Day 1 and 2. Tissues were removed 72 h after TNBS administration (on Day3). Dosing was performed once in the morning (Between 9:00 and 11:00) and once in the late afternoon (between 18:00 and 20:00).
Preparation of Compound. CCI-7155 and CCI-7156 were suspended in 0.5% w/v carboxy methyl cellulose in sterile water, to produce a smooth suspension as instructed, and administered in a volume of 2 ml/kg (˜0.5 ml per rat per dose).
Preparation of Sulfasalazine. the Doses of Sulfasalazine Used in the Present study were derived from previously published work with this agent in the TNBS model (Boughton-Smith et al, 1988; Sykes et al, 1999; Galvez et al, 2000; Bobin-Dubigeon et al, 2001). Sulfasalazine was suspended in carboxy methyl cellulose (0.5% w/v in sterile water; Sigma Chemical Co, compound reference M-0262) and administered p.o. in a volume of 0.5 ml. In previous studies in these laboratories, this concentration of carboxy methyl cellulose (CMC) had no significant effect on the extent of colitis as determined by macroscopic injury and changes in inflammatory markers following TNBS challenge.
Macrocopic Injury. The distal 8 cm portion of the colon (measured from the rectum) was removed, opened longitudinally and gently rinsed with ice-cold phosphate buffer (PBS; pH 7.4), blotted, weighed (Scaltec, Germany) and photographed (Samsung, Digimax 340, digital camera). The tissue was then cut into longitudinal strips, each strip being thus 8 cm long and included the whole of the zone of injury. […]

[2] = test system: colitis provoked by trinitrobenzene sulphonic acid (TNBS); assay: Rat model of colitis provoked by TNBS, 3 days, treatment from Day −1 (CCI-7308); type: in vivo; details: for attenuation of TNBS-induced fall in body weight (% change in body weight at Day 0) / reduction in area of macroscopic colonic injury / reduction in colonic MPO activity / reduction in colon weight / reduction in colonic TNF-α levels: vs CMC group; for reduction in area of macroscopic colonic injury: 72 h after TNBS
Excerpt: In the study, colonic macroscopic injury has been assessed, as has colonic weight as a reflection of colonic oedema, along with determination of MPO activity (Bradley et al, 1982) as an index of white cell infiltration for the evaluation of tissue injury. The methods and protocol used were substantially similar to those in Example 39, with some differences described below. TNBS Challenge—Male Wistar rats (270-330 g) were randomised into groups of 10-11 before commencement of the study. The following primary parameters were measured in the study: In addition, the weight of the colonic segment was assessed as an indirect and non-specific marker of oedema. The body weight of the animals was also determined and expressed as % change from the day of challenge. Treatments. All challenged groups were dosed orally twice daily from Day −1. The groups for study were: Colon homogenates for cytokine measurements. […] Tissue homogenates were lysed for 30 min. on ice, and then centrifuged (10 min., 14, 000×g). The aliquots of the supernatant were stored at −20° C. until use (Ten Hove et al., 2001). Tumour Necrosis Factor-a Activity. The TNF-α levels were determined with quantitative TNF-α solid-phase Enzyme Linked ImmunoSorbent Assay (ELISA), which is based on the sandwich principle (HyCult biotechnology b. V;. Cat number: […] At the end of the ELISA assay, the samples were measured spectrophotometrically (Benchmark Microplate reader, Bio-Rad Lab; λ=450 nm). The samples were diluted 2 or 4 times with the sample buffer included in the kit. The TNF-α values were expressed as pg/mg protein. This commercially available kit (Hycult Biotechnology b.v. Uden, The Netherlands. Catalogue number: […]

[3] = Various In Vitro Cell Biology Assays (Example 41, Tables 23-26); type: cell-based; details: PBMC, 24 h, IL-1 □ secretion (h) (PBMC), LPS 1 μg/ml, 24 h; 3×10^−6 M; read-out: % Inhibition of Control Values
Description: In each experiment, the respective reference compound was tested concurrently with the test compounds in order to assess the assay suitability. It was tested at several concentrations (for IC50 value determination).
The test compounds were assayed at 3×10^−6 M.
Results. The results are expressed as a percent of control values and as a percent inhibition of control values obtained in the presence of the test compounds.
The IC50 values (concentration causing a half-maximal inhibition of control values) and Hill coefficients (nH) were determined by non-linear regression analysis of the inhibition curves using Hill equation curve fitting, a summary of the data is shown in Table 26. The IC50 value for each reference compound is indicated was determined (data not shown) and was within accepted limits of the historic average ±0.5 log units.

TNF-α production by PMBC = assay: Inhibition of TNF-α Production By Peripheral Blood Monocyte Cells (PMBC), LPS stimulated; type: cell-based; details: 1 ug/mL LPS, 24 hours
Description: PMBC in RPMI 1640 Cell Culture Medium (containing 1% Penicillin and 1% Streptomycin) are aliquoted into 96-well plates at 5×10^5 cells/well and pre-incubated with test compounds for 30 minutes at 37° C. After incubation, 1 ug/mL LPS is added to each well to stimulate TNF-α production and the plate is incubated for 24 hours at 37° C. After incubation, the supernatant is removed and the TNF-α secreted is quantified using EIA detection kits commercially available from R&D Systems (USA). The results from this assay are expressed as percent inhibition of control activity, with the control being stimulated wells with no test compound. Dexamethasone is used as a standard reference compound in the assay and is tested with each experiment. All test compounds are diluted from 10 mM stock solutions in 100% DMSO.

[4] = test system: arachidonic acid-induced ear edema; assay: Arachidonic acid-induced mouse ear edema model; type: in vivo
Description: This example was carried out in male BALB/c mice. 42 BALB/c mice (Harlan Sprague-Dawley, Inc., male, PO # 452036, R #2449, 5-6 weeks) were received, individually examined, and housed in four cages of ten mice each and one cage containing two mice. Each animal was in apparent good health: no clinical signs of disease or distress. The animals were placed in quarantine with daily inspections.
An aliquot of a representative presently disclosed compound was stored in an amber glass vial and stored at 25° C. […] 0.1 mL of this solution was diluted into 0.9 mL 190 proof alcohol to prepare a 0.5% solution.
30 mg indomethacin (Sigma Cat. I-7378, lot 60K0745) was dissolved in 5 ml 0.1 M NaHCO3 to prepare a 6 mg/mL solution.
48.9 μL arachidonic acid (Sigma Cat. A-9673. lot 057K1620) was dissolved in 450 μL 190 proof alcohol to prepare a 100 mg/mL solution.
The mice were numbered and weighed. The mice in Groups 1, 3, 4 were topically treated on both sides of both ears with either 25 μL 190 proof alcohol, 5% 5-(2-(4-Methoxyphenyl)-1H-benzo[d]imidazol-1-yl)pentylboronic acid, or 0.5% 5-(2-(4-Methoxyphenyl)-1H-benzo[d]imidazol-1-yl)pentylboronic acid. The mice in Group 2 were injected intraperitoneally with 5 mL/kg indomethacin (30 mg/kg). Thirty minutes after 190 proof alcohol, indomethacin, or 5-(2-(4-Methoxyphenyl)-1H-benzo[d]imidazol-1-yl)pentylboronic acid application/administration, 5 μL of the arachidonic acid solution was applied to the dorsal and ventral sides of the right ear. The contralateral ear was treated with 190 proof alcohol. One hour after alcohol/arachidonic acid application, the mice were euthanized, the ears removed and the ear weights recorded.
Significance (p-value) was calculated using Student's T-test. The effect of prophylactic topical treatment with a representative presently disclosed compound on arachidonic acid-induced murine ear edema is shown in FIG. 16.

[5] = 50 mg/kg/day p.o. in divided doses
[6] = 100 mg/kg/day p.o. in divided doses b.i.d.
[7] = 100 mg/kg/day p.o. in divided doses
[8] = 4 mg/kg/day p.o. in divided doses
[9] = 20 mg/kg/day p.o. in divided doses
[10] = individual mice, 30 mg/kg, i.p.

N#Cc1ccc2c(ccn2CCCCCB(O)O)c1 [CCI-7155]
attenuation of TNBS-induced fall in body weight (% change in body weight at Day 0) ([1]; 50 mg/kg/day p.o. in divided doses b.i.d.): dose-dependent attenuation of this fall in body weight | reduction in area of macroscopic colonic injury [1, 5]: statistically significant for both doses | reduction in colonic MPO levels [1, 5]: significant (P<0.01) reduction in colonic MPO levels at both doses | attenuation of TNBS-induced fall in body weight (% change in body weight at Day 0) [1, 6]: significantly different from the TNBS control group at both Day 2 and Day 3 post-challenge | reduction in area of macroscopic colonic injury [1, 7]: statistically significant for both doses | reduction in colon weight [1, 7]: statistically significant | reduction in colonic MPO levels [1, 7]: significant (P<0.01) reduction in colonic MPO levels at both doses | reduction in colonic water content (wet/dry weight) [1, 7]: reduction in the colonic water content was significant

OB(O)CCCCCn1c(-c2cscn2)nc2ccccc21 [CCI-7156]
attenuation of TNBS-induced fall in body weight (% change in body weight at Day 0) [1, 6]: reached marginal significance | reduction in area of macroscopic colonic injury [1, 7]: statistically significant (P<0.001) | reduction in colon weight [1, 7]: did not cause a significant reduction in the colon weight | reduction in colonic MPO levels [1, 7]: caused significant fall in the elevated MPO levels | reduction in colonic water content (wet/dry weight) [1, 7]: did not cause a significant reduction in the colonic water content | attenuation of TNBS-induced fall in body weight (% change in body weight at Day 0) [2, 6]: significant (P<0.001) on Days 1, 2 and 3 post-challenge

COc1ccc(-c2nc3ccccc3n2CCCCCB(O)O)cc1 [CCI-7308]
inhibition at 3 µM [3]: 68% | attenuation of TNBS-induced fall in body weight (% change in body weight at Day 0) ([2]; 4 mg/kg/day p.o. in divided doses b.i.d.): significantly different from the challenged CMC control group on Day 1 | reduction in area of macroscopic colonic injury [2, 8]: did not reach significance | reduction in colonic MPO activity [2, 8]: significant (P<0.001) reduction in colonic MPO levels at all three dose levels | attenuation of TNBS-induced fall in body weight (% change in body weight at Day 0) ([2]; 20 mg/kg/day p.o. in divided doses b.i.d.): significantly different from the CMC group on Days 1, 2 and 3 | reduction in area of macroscopic colonic injury [2, 9]: statistically significant | reduction in colon weight [2, 9]: statistically significant | reduction in colonic MPO activity [2, 9]: significant (P<0.001) reduction in colonic MPO levels at all three dose levels | reduction in colonic TNF-α levels [2, 9]: achieving significance | attenuation of TNBS-induced fall in body weight (% change in body weight at Day 0) [2, 6]: preventing the fall in body weight on all 3 days post-challenge | reduction in area of macroscopic colonic injury [2, 7]: statistically significant | reduction in colon weight [2, 7]: statistically significant | reduction in colonic MPO activity [2, 7]: significant (P<0.001) reduction in colonic MPO levels at all three dose levels | reduction in colonic TNF-α levels [2, 7]: achieving significance | relative potency versus sulfasalazine in reducing macroscopic injury ([2]; preliminary indication, from comparison of molecular weights): ~2.5 times

COc1ccc(-c2nc3ccccc3n2CCCCCB(O)O)cc1F [Example 11, 5-(2-(3-Fluoro-4-methoxyphenyl)-1H-benzo[d]imidazol-1-yl)pentylboronic acid]
IC50 (TNF-α production by PMBC): 500 nM

COc1ccc2c(c1)c(CC(=O)O)c(C)n2C(=O)c1ccc(Cl)cc1 [indomethacin, reference compound]
inhibition of the irritant-induced ear edema ([4]; 30 mg/kg intraperitoneal, thirty minutes prior to arachidonic acid challenge): 75% | Change in Ear Weight (mg) Average ([4]; 30 mg/kg, ip): 12.7 mg | % Inhibition ([4]; change in ear weight vs vehicle, 30 mg/kg, ip): 74.7% | Ear Weight (mg) Left (−AA) [4, 10]: 23 mg (2×) and 20 mg and 21 mg and 22 mg (3×) and 24 mg (2×) and 26 mg | Ear Weight (mg) Right (+AA) [4, 10]: 44 mg and 32 mg (3×) and 33 mg and 35 mg and 31 mg and 34 mg and 38 mg and 43 mg
